According to patent US8614333B2, “Acenaphtho heterocyclic compound and application thereof” (Dalian University of Technology, priority 2010, dated 2013):

Columns and labels:
MCF-7 cells = test: Cytotoxicity by MTT, cells without plasmid transfection; assay type: cell-based; conditions: Homo sapiens, MCF7; MCF-7, MTT, 48 hours; read-out: IC50 value in untransfected cells
Experimental: (§1) 3 μg of BAX/BAK interfering plasmid was transfected into MCF-7 cells by using calcium phosphate coprecipitation method, 24 hours later, the cells were collected. The expressions after the BAX and BAK proteins interfered with RNA was detected by Western, and the cell groups without plasmid transfection were treated similarly and were set as the control group. The transfected cells were inoculated in a 96-well plate (1×10^5 cells/well), the control experiment of the cell group without plasmid transfection was carried out in parallel. The compound 1 to be detected was added thereinto according to the concentration gradient designed before the experiment. 48 hours later, the cellular vitality was detected by MTT. The experimental results were shown in FIG. 9, Gossypol as nonspecific BH3 analogue was treated in parallel.
(§2) Other 24 compounds were also detected by the same experimental method as described above, the differences of IC50 values between the transfected cells and the without plasmid transfection cells were compared.

[1] = system: MCF-7 cells transfected with BAX/BAK interfering plasmid; test: Cytotoxicity by MTT, cells transfected with BAX/BAK interfering plasmid; assay type: cell-based; conditions: Homo sapiens, MCF7; MCF-7 with BAX/BAK interfering plasmid, MTT, 48 hours
Experimental: as §1, §2

His-tagged Mcl-1 protein = His-tagged Mcl-1 protein (Homo sapiens, UniProt Q07820); test: ELISA assay, competitive binding to Mcl-1 protein (biotin-Bim/streptavidin plate); conditions: 20 nM His-tagged Mcl-1, method calculates average IC50, read-out: Mcl-1 binding constants
Experimental: (§3) The present inventors used fluorescence polarization assay to detect the bonding force between the protein and the compounds in a previous study (PCT/CN2010/075521). […] ELISA assay was used to detect the bonding force between the compounds and the protein in this application.
(§4) Biotinylated Bim peptide was diluted to 0.09 μg/mL in SuperBlock blocking buffer in PBS and incubated for 1.5 h in 96-well microtiter plates already coated with streptavidin to allow the formation of the complex between Biotin-Bim and streptavidin. All incubations were performed at room temperature unless otherwise noted. Each inhibitor was first dissolved in pure DMSO to obtain a 10 mM stock solution. For each tested inhibitor, different concentrations of the inhibitor were incubated with 20 nM His-tagged Mcl-1 protein in PBS for 1 h with a final DMSO concentration of 4%. The plates were washed three times with PBS containing 0.05% Tween-20. The inhibitor and protein mixture (100 μL) were transferred to the plate containing the biotin-Bim/streptavidin complex and incubated for 2 h. The plate was then washed as before and mouse anti-His antibody that conjugated with horseradish peroxidase was added into the wells and incubated for 1 h. The plate was then washed with PBS containing 0.05% Tween-20. Finally, TMB was added to each well; the enzymatic reaction was stopped after 30 min by addition of H2SO4 (100 μL, 2M). Absorbances were measured with a TECAN GENios (Swiss, TECAN) microplate reader using a wavelength of 450 nm. Three independent experiments were performed with each inhibitor to calculate average IC50 value and standard deviation (SD).
(§5) The BH3 analogous degrees of other 11 compounds were detected by using the experimental method as described above. The protein binding constant (binding constant in table 1) between them and Bcl-2 and Mcl-1 proteins were also on nM grade.

[2] = system: BAX shift towards the chondriosome; test: Co-localization between Bax protein and chondriosome, Bax-YFP in MCF-7 cells; assay type: cell-based; conditions: for Doses (concentration at which the compound drove the BAX to shift towards the chondriosome): Bax-YFP/Mito Tracker Red; for Time (time period after which BAX shifted towards the chondriosome): at the concentration given
Experimental: 5 μg of Bax-YFP plasmid was transfected into MCF-7 cells by using calcium phosphate coprecipitation method, 24 hours later, the cells were inoculated in a 6-well plate (0.2×10^6 cells/well), and 10 μM of the compound 1 to be detected was added thereinto. 6 hours later, the cells were washed with PBS and hatched away from light with 50 nM Mito Tracker Red CMXRos (chondriosome specific probes; red) for 10 minutes. Then the cells were washed with PBS for three times, and the fluorescent image was scanned with Radiance2000 laser confocal microscopy (Bio-Rad, USA). Meanwhile, dual channel scanning was carried out, one channel was used to scan the green fluorescence of Bax-YFP, and the other channel was used to scan the red fluorescence of the CMXRos probe for indicating the chondriosome. […] When the Bax protein was localized on the chondriosome, the green and red fluorescence was superimposed into orange, as shown in FIG. 7.
Other 24 compounds were detected by the same experimental method as described above. […] Wherein the concentration and time meant that the detected compound simulated the BH3-only protein and driven the BAX to shift towards the chondriosome at the concentration for the time period.

Bcl-2 = test: Western blotting, semiquantitative analysis of Bcl-2 protein bands; assay type: cell-based; conditions: control = 1, tumor cells
Experimental: (§6) The interest protein was detected by the corresponding antibody. The expression of the interest protein in the cells was detected by horseradish peroxidase-labeled secondary antibodies in combination with ECL coloration method. […] The concentration of the protein bands in the Western images were carried out semiquantitative analysis and normalization treatment with KODAK Gel Logic 1500 imaging system software.

Mcl-1 = test: Western blotting, semiquantitative analysis of Mcl-1 protein bands; assay type: cell-based; conditions: control = 1, tumor cells
Experimental: as §6

Bcl-2 protein = Bcl-2 protein (Homo sapiens, UniProt P10415); test: ELISA assay, competitive binding to Bcl-2 protein (biotin-Bim/streptavidin plate); conditions: method calculates average IC50, read-out: Bcl-2 binding constants
Experimental: as §3, §4, §5

[3] = target: T1, interaction between Bcl-2 and Bax (Homo sapiens, UniProt P10415); test: Intracellular FRET, Bcl-2-CFP/Bax-YFP in Hela cells; assay type: cell-based; conditions: for Time (time period after which the interaction between Bcl-2 and Bax was interfered): at the concentration given
T1 construct: expressed in transfected cells; host or cells: Hela cells
Experimental: 2 μg of Bcl-2-CFP and Bax-YFP plasmids were transfected separately or simultaneously into Hela cells by using calcium phosphate coprecipitation method, 24 hours later, the cells were inoculated in a 6-well plate (2×10^5 cells/well), and the compound 1 to be detected dissolved in DMSO was added there into until the final concentration (2, 5, 10 and 15 μM) was achieved. 24 hours later (please refer to FIG. 5); the cells were washed with PBS for three times. The fluorescence value was detected by GENIOS fluorescence enzyme-labelled meter (TECAN, Swiss). In time-dependent experiment, the transfected cells were inoculated in a 6-well plate, after that, 40 μM of the compound was added thereinto. 3, 6 and 24 hours later (FIG. 6), the fluorescence intensities were detected by plate reader. As for the cell group in which only Bcl-2-CFP plasmid was transfected, the values at 475 nm emission wave length and 433 nm excitation wave length were recorded. As for the cell group in which only Bax-YFP plasmid was transfected, the values at 527 nm emission wave length and 505 nm excitation wave length were recorded. As for the cell group in which Bcl-2-CFP and Bax-YFP plasmids were co-transfected, the values at 527 nm and 475 emission wave lengths and 433 nm excitation wave length were recorded. The ratio of fluorescence intensity at 527 nm and 475 nm emission wave lengths was FRET. The FRET for the control group in which the plasmid was solely transfected was set as 1.0. […] In the cotransfected cells, the FRET increased up to 2.0 due to the interaction of Bcl-2 protein and Bax protein, and that the interference to the interaction between the two proteins increased and FRET decreased with the increase of the drug concentration and time. The cellular vitality was detected by MTT method. When the concentration of the compound reached 1 μM, the interaction between Bcl-2 and Bax can be interfered after 2 hours, and the results appeared concentration-time dependent trend.
Wherein the concentration and time meant that the detected compound interfered with the interaction between Bcl-2 and Bax at the concentration for the time period.

Chain of His-tagged Mcl-1 protein (Q07820 whole entry): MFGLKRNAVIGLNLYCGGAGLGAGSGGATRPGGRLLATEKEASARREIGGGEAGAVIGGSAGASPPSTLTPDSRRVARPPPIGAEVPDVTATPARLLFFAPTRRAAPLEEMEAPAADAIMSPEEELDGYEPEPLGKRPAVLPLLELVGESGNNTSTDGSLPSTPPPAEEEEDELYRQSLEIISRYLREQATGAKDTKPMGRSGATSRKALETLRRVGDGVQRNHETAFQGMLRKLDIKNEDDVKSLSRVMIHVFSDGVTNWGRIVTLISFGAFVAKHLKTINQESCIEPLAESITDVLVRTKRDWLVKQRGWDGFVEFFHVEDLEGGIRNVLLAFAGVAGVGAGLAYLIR
T1 sequence (P10415 whole entry): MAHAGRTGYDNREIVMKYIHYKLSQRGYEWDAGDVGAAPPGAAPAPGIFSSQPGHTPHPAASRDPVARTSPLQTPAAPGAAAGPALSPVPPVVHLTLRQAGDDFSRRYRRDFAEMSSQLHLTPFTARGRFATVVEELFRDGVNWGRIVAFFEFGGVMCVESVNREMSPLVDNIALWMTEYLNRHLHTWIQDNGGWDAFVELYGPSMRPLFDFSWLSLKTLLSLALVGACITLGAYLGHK
Chain of Bcl-2 protein (P10415 whole entry, species assumed): as the sequence (P10415 whole entry) above

SMILES	IC50 (MCF-7 cells)	IC50 [1]	IC50 (His-tagged Mcl-1 protein)	Doses (concentration at which the compound drove the BAX to shift towards the chondriosome) [2]	Time (time period after which BAX shifted towards the chondriosome) [2]	concentration of the protein bands (semiquantitative, normalized), Bcl-2 (Bcl-2; 6 h)	concentration of the protein bands (semiquantitative, normalized), Bcl-2 (Bcl-2; 12 h)	concentration of the protein bands (semiquantitative, normalized), Bcl-2 (Bcl-2; 18 h)	concentration of the protein bands (semiquantitative, normalized), Bcl-2 (Bcl-2; 24 h)	concentration of the protein bands (semiquantitative, normalized), Mcl-1 (Mcl-1; 2 h)	concentration of the protein bands (semiquantitative, normalized), Mcl-1 (Mcl-1; 6 h)	IC50 (Bcl-2 protein)	Doses (concentration at which the compound interfered with the interaction between Bcl-2 and Bax) [3]	Time (time period after which the interaction between Bcl-2 and Bax was interfered) [3]	melting point
CCCCNC1=C2C(=NC1=O)c1cccc3c(N4CCSCC4)ccc2c13 [Compound 9, 9-Butylamino-3-thiomorpholin-4-yl-acenaphtho[1,2-b]pyrrol-8-one]	1300 nM	> 50000 nM	16 nM	0.6 µM	3 h	0.99	0.99	0.49	0.20	0.60	0.29	63 nM	0.4 µM	2 h	239 to 240 °C
CCCCCCNC1=C2C(=NC1=O)c1cccc3cccc2c13 [Compound 2, 9-n-Hexylamino-acenaphtho[1,2-b]pyrrol-8-one]	3500 nM	> 50000 nM	25 nM	0.5 µM	3 h	0.99	0.99	0.50	0.19	0.70	0.31	28 nM	0.4 µM	3 h	234 to 235 °C
O=C1N=C2C(=C1NCCCc1ccccc1)c1cccc3cccc2c13 [Compound 3, 9-(3-Phenyl-propylamino)-acenaphtho[1,2-b]pyrrol-8-one]	3000 nM	> 50000 nM	14 nM	0.2 µM	2 h	0.99	0.99	0.49	0.18	0.65	0.29	8 nM	0.2 µM	2 h	252 to 253 °C
CC(C)c1ccc(Oc2ccc3c4c(cccc24)C2=NC(=O)C(NCCCc4ccccc4)=C23)cc1 [Compound 12, 3-(4-Isopropyl-phenoxy)-9-(3-phenyl-propylamino)-acenaphtho[1,2-b]pyrrol-8-one]	2900 nM	> 50000 nM	15 nM	0.3 µM	2 h	0.99	0.99	0.45	0.16	0.66	0.28	9 nM	0.2 µM	1 h	275 to 276 °C
O=C1N=C2C(=C1NCCCc1ccccc1)c1ccc(Sc3ccc(Br)cc3)c3cccc2c13 [Compound 8, 3-(4-Bromo-phenylsulfanyl)-9-(3-phenyl-propylamino)-acenaphtho[1,2-b]pyrrol-8-one]	1000 nM	> 50000 nM	4 nM	0.1 µM	1 h	0.99	0.99	0.42	0.10	0.52	0.22	6 nM	0.1 µM	1 h	272 to 273 °C
